According to US20040186166A1, “Cannabinoid analogs as peroxisome proliferator activated nuclear receptor gamma activators” (priority 2002, published 2004):

How the values were obtained:
[1] = mouse tail clip assay, cited from earlier work
[2] = target: T1, PPARα (Mus musculus, UniProt P23204); assay: PPRE-TK-LUC reporter transient transfection, PPARα; assay type: cell-based; conditions: 1 to 20 μM AJA
T1 construct: expressed in transfected cells; host or cells: HEK293 / HEK293T
T1 sequence (P23204 1-468): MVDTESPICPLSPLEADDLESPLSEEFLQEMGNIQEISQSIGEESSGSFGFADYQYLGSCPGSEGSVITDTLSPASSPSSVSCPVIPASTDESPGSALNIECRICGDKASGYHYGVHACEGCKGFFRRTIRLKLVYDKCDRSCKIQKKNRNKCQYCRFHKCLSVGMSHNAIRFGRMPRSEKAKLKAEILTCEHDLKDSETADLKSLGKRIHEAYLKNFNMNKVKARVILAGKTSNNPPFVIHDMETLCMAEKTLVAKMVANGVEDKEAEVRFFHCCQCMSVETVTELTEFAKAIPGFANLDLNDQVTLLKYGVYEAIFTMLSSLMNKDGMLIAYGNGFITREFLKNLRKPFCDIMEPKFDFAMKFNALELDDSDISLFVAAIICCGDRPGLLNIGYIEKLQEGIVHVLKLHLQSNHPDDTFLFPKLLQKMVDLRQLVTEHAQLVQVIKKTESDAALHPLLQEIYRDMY
Procedure: For PPARγ activation assay, HEK293 cells were plated in 12-well cell culture plates and maintained in Dulbecco's modified Eagle's medium (DMEM) supplemented with 10% fetal bovine serum (FBS) at 37° C. under 5% CO2. Cells were changed to phenol red-free DMEM supplemented with 10% charcoal-stripped fetal bovine serum 3 hours before transfection by a standard calcium-phosphate precipitation method. Twelve hours after transfection, the cells were washed with phosphate-buffered saline (PBS) and fed again with fresh medium containing the indicated concentrations of compounds. After 36 hours, cells were harvested for β-galactosidase and luciferase activities as described previously (Li et al., Proc Natl Acad Sci USA 94:8479-84, 1997). The average normalized luciferase activity was determined via triplicate experiments. For IL-8 promoter assay, HeLa cells were maintained and transfected in the same way as described above. After transfection, cells were recovered for 4 hours before treatment with AJA, GW347845, or solvent. After 3-4 hours, cells were treated with or without 25 nM of phorbol myristate acetate (PMA) for 24 hours.
In an effort to confirm that AJA activates PPARγ selectively, the ability of AJA to activate PPARα and PPARδ was analyzed in a similar transient transfection assay.

**Q.** With `CCCCCCC(C)(C)c1cc(O)c2c(c1)OC(C)(C)[C@@H]1CC=C(C(=O)O)C[C@@H]21` [AJA, dimethylheptyl-THC-11-oic acid] as the molecule, how does the analgesic function ([1]; Dajani et al. 1999) read?
**A.** Its analgesic function is “potent analgesic function comparable with morphine”.

**Q.** And the “duration of analgesic effect” value ([1]; compared with morphine)?
**A.** Its value is “lasted even longer than morphin”.

**Q.** What about the “activation of PPARα” value [2] of the same molecule?
**A.** Its value is “no further activation was observed”.
